Source: patent US11275086B2 (priority 2010, dated 2022)
Like-named read-outs stand apart in the source and are kept apart here.

Test system: MTB specific T CD4+ lymphocytes
Format: cell-based, human
Conditions: for positive tests / evaluable subjects: Microbiologically checked TB patients (before therapy start) / positive tests / evaluable subjects: Recently MTB exposed subjects: anergic subjects excluded

| Substance | positive tests / evaluable subjects: BCG-vaccinated controls | positive tests / evaluable subjects: Microbiologically checked TB patients (before therapy start) | positive tests / evaluable subjects: Recently MTB exposed subjects | positive tests / evaluable subjects: Sanitary workers | sensitivity compared with ESAT-6 derived control peptide (result in words) | positive tests / evaluable subjects: BCG-vaccinated controls (BCG-vaccinated controls) |
| --- | --- | --- | --- | --- | --- | --- |
| RPVRRVLLFVVPSSGPAP (listed as Mycobacterium tuberculosis) [Peptide #4, peptide of Rv3479] | 0/15 | 10/55 | 13/61 | 6/21 |  |  |
| GSVRQLPSVLKPPLITLRTLTLSG (listed as Mycobacterium tuberculosis) [Peptide #3, peptide of Rv3479] | 0/15 | 27/55 | 20/61 | 7/21 | elevated sensitivity comparable, if not more elevated, to multiepitope ESAT-6 protein derived control peptide |  |
| TAWITAVVPGLMV (listed as Mycobacterium tuberculosis) [Peptide #1, peptide of Rv1478 (Consensus VIR)] | 0/15 | 12/55 | 14/61 | 6/21 |  |  |
| ELMARAAVLGSAH (listed as Mycobacterium tuberculosis) [Peptide #6, peptide of Rv1251c] |  | 14/55 | 6/61 | 3/21 |  | 0/15 |
| GEIIFISGRLNGaa (GEIIFISGRLNGAA; listed as Mycobacterium tuberculosis) [Peptide #5, peptide of Rv0724A] |  | 18/55 | 11/61 | 5/21 |  | 0/15 |
| AVIVRSELLTQYL (listed as Mycobacterium tuberculosis) [Peptide #2, peptide of Rv1251c] |  | 11/55 | 8/61 | 1/21 |  | 0/15 |
